Test results: patent US5039528A, “EAA antagonists as anti-emetic drugs” (priority 1989, dated 1991)

Assays:
dogs = experiment: Emesis induction by NMDA in dogs; blockage by D-AP5; type: in vivo, dog; details: IV, in the vicinity of 5 mg/kg
Method: Therefore, each dog (all were young adults) was used for more than one experiment. Typically, one or more tests would be done using NMDA to determine an effective dosage for an individual dog. After the dose was established, an experiment was conducted on a subsequent day in which the dog also received 2 mg/kg D-AP5 subcutaneously (SC), along with the NMDA. On the day after that, NMDA was administered alone, to ensure that the emetic response was unchanged and the dog had not developed tolerance or sustained damage to the emesis-mediating reflexes.

[1] = statement in text; cited from earlier work
NMDA receptors = experiment: Chick retina assay: protection against excitotoxic action of NMDA; type: cell-based; details: Table 1, normalized to kynurenic acid vs KA = 1
Description: (§1) Antagonist potencies were established in a chick retina assay which has
(§2) (NMDA, KA and Quis) for excitotoxic properties and EAA antagonists for
(§3) potency in protecting the retina against the excitotoxic action of such
(§4) agonists. The concentration of antagonist required to totally prevent the
(§5) toxic action of an agonist was used to compare antagonists for potency.
(§6) For purposes of illustration, the data were normalized by assigning a
(§7) EAA antagonist properties have been described in each category. Antagonis
(§8) potencies were established in a chick retina assay which has been used by
(§9) Quis) for excitotoxic properties and EAA antagonists for potency in
(§10) protecting the retina against the excitotoxic action of such agonists.
(§11) concentration of antagonist required to totally prevent the toxic action
(§12) of an agonist was used to compare antagonists for potency. For purposes o
(§13) to kynurenic acid vs KA (see table 1) and all other values were adjusted

KA receptors = experiment: Chick retina assay: protection against excitotoxic action of KA; type: cell-based; details: Table 1, normalized to kynurenic acid vs KA = 1
Description: as §1, §2, §3, §4, §5, §6, §7, §8, §9, §10, §11, §12, §13

Quis receptors = experiment: Chick retina assay: protection against excitotoxic action of Quis; type: cell-based; details: Table 1, normalized to kynurenic acid vs KA = 1
Description: as §1, §2, §3, §4, §5, §6, §7, §8, §9, §10, §11, §12, §13

non-NMDA receptors = experiment: Chick retina assay: blocking non-NMDA receptors; type: cell-based; details: chick retinas, relative to Kyn
[2] = system: EAA receptors (NMDA, KA, Quis); details: cited from earlier work
ferrets [3] = details: ferrets treated with cisplatin; cited from earlier work
cancer patients = details: cited from earlier work
5-HT M receptors = details: cited from earlier work
ferrets [4] = experiment: Emesis induction by cisplatin (8 mg/kg IV) in ferrets; blockage by Kyn; type: in vivo, ferret; details: cisplatin 8 mg/kg IV alone, 4 ferrets, 5 h observation
Method: Four ferrets (a control group) received 8 mg/kg IV cisplatin, a chemotherapeutic drug which has a powerful emetic effect.
Nine ferrets were treated with cisplatin (8 mg/kg IV), and with Kyn, either by bolus (one-shot) injection using 150 mg/kg, or by continuous IV infusion using 50 mg/kg/hour.

ferrets [5] = experiment: Emesis induction by cisplatin (10 mg/kg IV) in ferrets; blockage by D-AP5/CNQX; type: in vivo, ferret; details: cisplatin 10 mg/kg IV alone, five ferrets, 5 h
Method: Since suitable agents such as D-AP5 are available that can block NMDA receptors without crossing the BBB, a mixture of CNQX and D-AP5 was tested to see whether a mixture of an NMDA antagonist and a non-NMDA antagonist would have anti-emetic properties. The dosage of cisplatin was increased to 10 mg/kg IV, since only 3 out of 4 of the control animals vomited when 8 mg/kg was used as described in Example 4. This increased the stringency of the test.
Five control animals (ferrets) were treated.
Five test animals were treated by cisplatin, 10 mg/kg IV, followed by intravenous infusion of a mixture of 15 mg/kg/hr CNQX and 5 mg/kg/hr D-AP5.

[6] = of 20 cancer patients, no control group

Compound: CN[C@H](CC(=O)O)C(=O)O [NMDA, N-methyl-D-aspartate]
- emetic response to NMDA (dogs): vomiting can be induced
- penetration of blood brain barriers [1]: does not penetrate the BBB

Compound: N#Cc1cc2[nH]c(=O)c(=O)[nH]c2cc1[N+](=O)[O-] [CNQX]
- EAA antagonist potency vs NMDA (NMDA receptors): 5
- EAA antagonist potency vs KA (KA receptors): 30
- EAA antagonist potency vs Quis (Quis receptors): 67
- times more powerful than Kyn in blocking non-NMDA receptors (non-NMDA receptors): approximately 30 times
- block of non-NMDA vs NMDA receptors [2]: block non-NMDA receptors substantially more powerfully than NMDA receptors
- potency compared with kynurenic or 7-chloro-kynurenic acid [2]: significantly more powerful

Compound: CN1C2CCCC1CC(NC(=O)c1nn(C)c3ccccc13)C2 (centres unmarked) [BRL 43694]
- preventing or reducing the severity of emesis (ferrets [3]): effective in preventing or reducing the severity of emesis
- patients with both nausea and vomiting (delayed in onset) (cancer patients; [6]): 9 patients
- patients with mild nausea (cancer patients; [6]): 4 patients
- patients with neither nausea nor vomiting (cancer patients; [6]): 7 patients
- cisplatin patients with nausea and vomiting (cancer patients; of the 5 patients that received cisplatin): 4 patients
- 5-HT M receptor antagonism (5-HT M receptors): more powerful and selective 5-HT M receptor antagonist than metoclopramide

Compound: N.N.[Cl][Pt][Cl] [cisplatin]
- malaise after cisplatin (ferrets [4]): All four control animals displayed persistent malaise
- vomiting after cisplatin (ferrets [4]): One control animal did not vomit, but the other three vomited repeatedly
- appearance of illness (ferrets [5]): all appeared ill throughout the observation period
